Test results reported in patent US20230382949A1 (HEPTARES THERAPEUTICS LIMITED, priority 2020, published 2023).
pEC50: −log10 of the molar value. Where two headings read alike, the source gives them in different places. Starred links: 1 amine or outer side, 2 acyl side, 3 side chain; linkers in the order of their positions; H or OH if unused. Non-standard residues stand in square brackets, D forms with d. Residues, ends and D or L forms follow the SMILES beside them. *: point of attachment. Ala(piperidin-4-yl) = O=C([C@H](CC1CCN([*:3])CC1)N[*:1])[*:2]; Malonyl(2,2-Me2,histaminyl) = CC(C)(C(=O)NCCc1cnc[nH]1)C(=O)*; dNMeBip = CN[C@H](Cc1ccc(-c2ccccc2)cc1)C(=O)O; dBip = N[C@H](Cc1ccc(-c2ccccc2)cc1)C(=O)O; Oic = O=C(O)[C@@H]1C[C@@H]2CCCC[C@@H]2N1; Phe(4-Br) = N[C@@H](Cc1ccc(Br)cc1)C(=O)O; His(τ-Me) = Cn1cnc(C[C@H](N)C(=O)O)c1; X5 = CC(C)(C(=O)NCc1c[nH]cn1)C(=O)*; hArg = N=C(N)NCCCC[C@H](N)C(=O)O; 3Pal = N[C@@H](Cc1cccnc1)C(=O)O; NMeQ = CN[C@@H](CCC(N)=O)C(=O)O; NMeL = CN[C@@H](CC(C)C)C(=O)O; Pip = O=C(O)[C@@H]1CCCCN1; Nle = CCCC[C@H](N)C(=O)O; Aib = CC(C)(N)C(=O)O; Sar = CNCC(=O)O

What was measured:
human Apelin receptor [1] = target: T1, human Apelin receptor (Homo sapiens, UniProt P35414); assay: cAMP accumulation assay (HTRF), functional agonism of human Apelin receptors; type: cell-based; settings: for Emax: CHO; for pEC50: pEC50, Human Apelin agonist cAMP assay; for EC50: read-out: pEC50 (converted)
T1 sequence (P35414 1-380): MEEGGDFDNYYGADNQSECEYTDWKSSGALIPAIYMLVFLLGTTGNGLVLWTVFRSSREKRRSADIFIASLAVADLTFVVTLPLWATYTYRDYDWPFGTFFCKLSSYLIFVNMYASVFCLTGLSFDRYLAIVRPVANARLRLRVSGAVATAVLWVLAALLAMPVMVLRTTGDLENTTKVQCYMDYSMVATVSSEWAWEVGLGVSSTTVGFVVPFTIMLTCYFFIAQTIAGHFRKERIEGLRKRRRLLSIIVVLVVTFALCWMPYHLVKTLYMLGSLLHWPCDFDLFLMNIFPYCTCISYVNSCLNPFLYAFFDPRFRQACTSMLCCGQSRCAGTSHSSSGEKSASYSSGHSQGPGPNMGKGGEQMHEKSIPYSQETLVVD
Text: cAMP functional assay. cAMP production was quantified using the Homogeneous Time-Resolved Fluorescence (HTRF) cAMP dynamic-2 assay (Cisbio, France).

human Apelin receptor [2] = target: T2, human Apelin receptor (Homo sapiens, UniProt P35414); assay: β-arrestin accumulation assay, functional agonism of human Apelin receptors; type: cell-based
T2 construct: host or cells: CHO-K1 cells
Method in brief: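 After 16 h at 37° C., cells were exposed to increasing agonist concentrations in serum-free medium for 90 min at 37° C. Detection reagent added for 60 min in the dark; receptor activation read by fluorescence and EC50 derived from concentration-response curves.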
T2 sequence (P32121 whole entry partner, one chain of several): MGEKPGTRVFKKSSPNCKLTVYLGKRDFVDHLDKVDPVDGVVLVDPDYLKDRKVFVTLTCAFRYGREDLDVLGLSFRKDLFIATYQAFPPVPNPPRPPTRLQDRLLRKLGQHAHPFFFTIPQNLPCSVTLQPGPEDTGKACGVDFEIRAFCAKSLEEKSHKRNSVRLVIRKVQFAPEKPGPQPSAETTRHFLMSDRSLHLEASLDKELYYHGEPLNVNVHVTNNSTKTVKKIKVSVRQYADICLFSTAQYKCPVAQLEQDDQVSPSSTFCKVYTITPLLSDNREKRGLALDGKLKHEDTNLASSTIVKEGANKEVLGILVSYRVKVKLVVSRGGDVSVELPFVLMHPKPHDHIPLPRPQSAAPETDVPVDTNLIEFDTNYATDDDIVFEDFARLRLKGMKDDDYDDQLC

[3] = Human Apelin agonist cAMP assay, CHO cells stably expressing the human Apelin receptor, 3 uM forskolin
[4] = CHO cells stably expressing the human Apelin receptor, 3 uM forskolin

| SMILES | Emax (human Apelin receptor [1]; [3]) [%] | pEC50 (human Apelin receptor [1]; [4]) | pEC50 (human Apelin receptor [2]) | Emax (human Apelin receptor [1]; read-out: Emax) [%] | EC50 (human Apelin receptor [1]) [nM] |
| --- | --- | --- | --- | --- | --- |
| CC(C)C[C@H](NC(=O)[C@H](CCCNC(=N)N)NC(=O)[C@@H]1CCCN1C(=O)[C@@H](CCCNC(=N)N)NC(=O)[C@H](CCC(N)=O)NC(=O)C(C)(C)C(=O)NCCc1cnc[nH]1)C(=O)NC(C)(C)C(=O)N[C@@H](Cc1cn(C)cn1)C(=O)N[C@@H](CC1CCNCC1)C(=O)NCC(=O)N1[C@H](C(=O)N[C@@H](Cc2ccc(Br)cc2)C(=O)N2CCC[C@H]2C(=O)N[C@H](Cc2ccc(-c3ccccc3)cc2)C(=O)O)C[C@@H]2CCCC[C@@H]21 [Example 49] ({Malonyl(2,2-Me2,histaminyl)}-Q[dR]PRL[Aib][His(τ-Me)][Ala(piperidin-4-yl)]G[Oic][Phe(4-Br)]P[dBip]-OH) | 87.2 | 8.10 | < 5.00 | – | – |
| CC(C)C[C@H](NC(=O)[C@@H](CCCNC(=N)N)NC(=O)[C@@H]1CCCN1C(=O)[C@H](CCCCNC(=N)N)NC(=O)[C@@H](CCC(N)=O)NC(=O)C(C)(C)C(=O)NCCc1cnc[nH]1)C(=O)NC(C)(C)C(=O)N[C@@H](Cc1c[nH]cn1)C(=O)N[C@@H](CC1CCNCC1)C(=O)NCC(=O)N1[C@H](C(=O)N[C@@H](Cc2ccc(Br)cc2)C(=O)N2CCC[C@H]2C(=O)N[C@H](Cc2ccc(-c3ccccc3)cc2)C(=O)O)C[C@@H]2CCCC[C@@H]21 [Example 50] ({Malonyl(2,2-Me2,histaminyl)}-[dQ][hArg]P[dR]L[Aib]H[Ala(piperidin-4-yl)]G[Oic][Phe(4-Br)]P[dBip]-OH) | 56.5 | 7.40 | < 5.00 | – | – |
| CC(C)C[C@@H](C(=O)NC(C)(C)C(=O)N[C@@H](Cc1c[nH]cn1)C(=O)N[C@@H](CC1CCNCC1)C(=O)NCC(=O)N1[C@H](C(=O)N[C@@H](Cc2ccc(Br)cc2)C(=O)N2CCC[C@H]2C(=O)N[C@H](Cc2ccc(-c3ccccc3)cc2)C(=O)O)C[C@@H]2CCCC[C@@H]21)N(C)C(=O)[C@@H](CCCNC(=N)N)NC(=O)[C@@H]1CCCN1C(=O)[C@H](CCCCNC(=N)N)NC(=O)[C@H](CCC(N)=O)NC(=O)C(C)(C)C(=O)NCCc1cnc[nH]1 [Example 51] ({Malonyl(2,2-Me2,histaminyl)}-Q[hArg]P[dR][NMeL][Aib]H[Ala(piperidin-4-yl)]G[Oic][Phe(4-Br)]P[dBip]-OH) | 27.6 | 7.10 | < 5.00 | – | – |
| CC(C)C[C@H](NC(=O)[C@@H](CCCNC(=N)N)NC(=O)[C@@H]1CCCN1C(=O)[C@H](CCCCNC(=N)N)NC(=O)[C@H](CCC(N)=O)NC(=O)C(C)(C)C(=O)NCCc1cnc[nH]1)C(=O)NC(C)(C)C(=O)N[C@@H](Cc1c[nH]cn1)C(=O)N[C@@H](CC1CCNCC1)C(=O)N(C)CC(=O)N1[C@H](C(=O)N[C@@H](Cc2ccc(Br)cc2)C(=O)N2CCC[C@H]2C(=O)N[C@H](Cc2ccc(-c3ccccc3)cc2)C(=O)O)C[C@@H]2CCCC[C@@H]21 [Example 52] ({Malonyl(2,2-Me2,histaminyl)}-Q[hArg]P[dR]L[Aib]H[Ala(piperidin-4-yl)][Sar][Oic][Phe(4-Br)]P[dBip]-OH) | 20.4 | 7.20 | < 5.00 | – | – |
| CC(C)C[C@H](NC(=O)[C@@H](CCCNC(=N)N)NC(=O)[C@@H]1CCCN1C(=O)[C@H](CCCCNC(=N)N)NC(=O)[C@H](CCC(N)=O)NC(=O)C(C)(C)C(=O)NCc1c[nH]cn1)C(=O)NC(C)(C)C(=O)N[C@@H](Cc1c[nH]cn1)C(=O)N[C@@H](CC1CCNCC1)C(=O)NCC(=O)N1[C@H](C(=O)N[C@@H](Cc2ccc(Br)cc2)C(=O)N2CCC[C@H]2C(=O)N[C@H](Cc2ccc(-c3ccccc3)cc2)C(=O)O)C[C@@H]2CCCC[C@@H]21 [Example 53] (X5-Q[hArg]P[dR]L[Aib]H[Ala(piperidin-4-yl)]G[Oic][Phe(4-Br)]P[dBip]-OH) | – | – | < 5.00 | 79.2 | 31.6 |
| CC(C)C[C@H](NC(=O)[C@@H](CCCNC(=N)N)NC(=O)[C@@H]1CCCCN1C(=O)[C@H](CCCCNC(=N)N)NC(=O)[C@H](CCC(N)=O)NC(=O)C(C)(C)C(=O)NCCc1cnc[nH]1)C(=O)NC(C)(C)C(=O)N[C@@H](Cc1c[nH]cn1)C(=O)N[C@@H](CC1CCNCC1)C(=O)N[C@@H](C)C(=O)N1[C@H](C(=O)N[C@@H](Cc2ccc(Br)cc2)C(=O)N2CCC[C@H]2C(=O)N[C@H](Cc2ccc(-c3ccccc3)cc2)C(=O)O)C[C@@H]2CCCC[C@@H]21 [Example 54] ({Malonyl(2,2-Me2,histaminyl)}-Q[hArg][Pip][dR]L[Aib]H[Ala(piperidin-4-yl)]A[Oic][Phe(4-Br)]P[dBip]-OH) | – | – | < 5.00 | 61.2 | 1.26 |
| CC(C)C[C@H](NC(=O)[C@@H](CCCNC(=N)N)NC(=O)[C@@H]1CCCCN1C(=O)[C@H](CCCNC(=N)N)NC(=O)[C@H](CCC(N)=O)NC(=O)C(C)(C)C(=O)NCCc1cnc[nH]1)C(=O)NC(C)(C)C(=O)N[C@@H](Cc1c[nH]cn1)C(=O)N[C@@H](CC1CCNCC1)C(=O)NCC(=O)N1[C@H](C(=O)N[C@@H](Cc2ccc(Br)cc2)C(=O)N2CCC[C@H]2C(=O)N[C@H](Cc2ccc(-c3ccccc3)cc2)C(=O)O)C[C@@H]2CCCC[C@@H]21 [Example 55] ({Malonyl(2,2-Me2,histaminyl)}-QR[Pip][dR]L[Aib]H[Ala(piperidin-4-yl)]G[Oic][Phe(4-Br)]P[dBip]-OH) | – | – | < 5.00 | 85.9 | 12.6 |
| CC(C)C[C@H](NC(=O)[C@@H](CCCNC(=N)N)NC(=O)[C@@H]1CCCCN1C(=O)[C@H](CCCCNC(=N)N)NC(=O)[C@H](CCC(N)=O)NC(=O)C(C)(C)C(=O)NCCc1cnc[nH]1)C(=O)NC(C)(C)C(=O)N[C@@H](Cc1cccnc1)C(=O)N[C@@H](CC1CCNCC1)C(=O)NCC(=O)N1[C@H](C(=O)N[C@@H](Cc2ccc(Br)cc2)C(=O)N2CCC[C@H]2C(=O)N[C@H](Cc2ccc(-c3ccccc3)cc2)C(=O)O)C[C@@H]2CCCC[C@@H]21 [Example 56] ({Malonyl(2,2-Me2,histaminyl)}-Q[hArg][Pip][dR]L[Aib][3Pal][Ala(piperidin-4-yl)]G[Oic][Phe(4-Br)]P[dBip]-OH) | – | – | < 5.00 | 68.1 | 20 |
| CC(C)C[C@H](NC(=O)[C@@H](CCCNC(=N)N)NC(=O)[C@@H]1CCCN1C(=O)[C@H](CCCCNC(=N)N)NC(=O)[C@H](CCC(N)=O)NC(=O)C(C)(C)C(=O)NCCc1cnc[nH]1)C(=O)NC(C)(C)C(=O)N[C@@H](Cc1cnc[nH]1)C(=O)N[C@@H](CC1CCNCC1)C(=O)NCC(=O)N1[C@H](C(=O)N[C@@H](Cc2ccc(Br)cc2)C(=O)N2CCC[C@H]2C(=O)N(C)[C@H](Cc2ccc(-c3ccccc3)cc2)C(=O)O)C[C@@H]2CCCC[C@@H]21 [Example 57] ({Malonyl(2,2-Me2,histaminyl)}-Q[hArg]P[dR]L[Aib]H[Ala(piperidin-4-yl)]G[Oic][Phe(4-Br)]P[dNMeBip]-OH) | 45.9 | 7.20 | < 5.00 | – | – |
| CC(C)C[C@H](NC(=O)[C@@H](CCCNC(=N)N)NC(=O)[C@@H]1CCCN1C(=O)[C@H](CCCCNC(=N)N)NC(=O)[C@H](CCC(N)=O)N(C)C(=O)C(C)(C)C(=O)NCCc1cnc[nH]1)C(=O)NC(C)(C)C(=O)N[C@@H](Cc1c[nH]cn1)C(=O)N[C@@H](CC1CCNCC1)C(=O)NCC(=O)N1[C@H](C(=O)N[C@@H](Cc2ccc(Br)cc2)C(=O)N2CCC[C@H]2C(=O)N[C@H](Cc2ccc(-c3ccccc3)cc2)C(=O)O)C[C@@H]2CCCC[C@@H]21 [Example 58] ({Malonyl(2,2-Me2,histaminyl)}-[NMeQ][hArg]P[dR]L[Aib]H[Ala(piperidin-4-yl)]G[Oic][Phe(4-Br)]P[dBip]-OH) | 33 | 6.10 | < 4.00 | – | – |
| CCCC[C@H](NC(=O)[C@@H]1C[C@@H]2CCCC[C@@H]2N1C(=O)CNC(=O)[C@H](CC1CCNCC1)NC(=O)[C@H](Cc1c[nH]cn1)NC(=O)[C@@H](C)NC(=O)[C@H](CC(C)C)NC(=O)[C@H](CCCNC(=N)N)NC(=O)[C@@H]1CCCN1C(=O)[C@H](CCCNC(=N)N)NC(=O)[C@H](CCC(N)=O)NC(=O)C(C)(C)C(=O)NCCc1cnc[nH]1)C(=O)N1CCC[C@H]1C(=O)N[C@H](Cc1ccc(-c2ccccc2)cc1)C(=O)O [Example 59] ({Malonyl(2,2-Me2,histaminyl)}-QRPRL[dA]H[Ala(piperidin-4-yl)]G[Oic][Nle]P[dBip]-OH) | 48.1 | 7.00 | < 5.00 | – | – |
| CCCC[C@H](NC(=O)[C@@H]1C[C@@H]2CCCC[C@@H]2N1C(=O)CNC(=O)[C@H](CC1CCNCC1)NC(=O)[C@H](Cc1ccc(Br)cc1)NC(=O)C(C)(C)NC(=O)[C@H](CC(C)C)NC(=O)[C@@H](CCCNC(=N)N)NC(=O)[C@@H]1CCCN1C(=O)[C@H](CCCCNC(=N)N)NC(=O)[C@H](CCC(N)=O)NC(=O)C(C)(C)C(=O)NCCc1cnc[nH]1)C(=O)N1CCC[C@H]1C(=O)N[C@H](Cc1ccc(-c2ccccc2)cc1)C(=O)O [Example 60] ({Malonyl(2,2-Me2,histaminyl)}-Q[hArg]P[dR]L[Aib][Phe(4-Br)][Ala(piperidin-4-yl)]G[Oic][Nle]P[dBip]-OH) | – | – | < 5.00 | 59 | 50.1 |
